Consider 33 compounds from patent US9920030B2 (priority 2006, dated 2018).

Where two headings read alike, the source gives them in different places.

Common to all, as to assay type: in vivo
For assay [1], the system named is Plasmopara vilicola (the causal agent of grape downy mildew). Briefly: Test A: grape downy mildew, test suspension sprayed on grape seedlings after inoculation, visual disease rating. As to conditions: for pest or weed control at 40 ppm: Plasmopara, 144 h, read-out: Percent Disease Control, Test A. In outline: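 Curative spray: spores applied first, plants kept 24 h in saturated air at 20 °C and dried before treatment, then 5 days at 20 °C plus 24 h saturated. Suspension: acetone (3% of volume) in 1:1 acetone/water, 250 ppm Trem 014, sprayed to run-off (200 ppm ≈ 500 g/ha); visual 0–100 control rating.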

For assay [2], the system named is Phytophthora infestans (the causal agent of tomato late blight). Put plainly: whole plant or invertebrate. As to conditions: for pest or weed control at 40 ppm: Phytophthora infestans, 96 h, read-out: Percent Disease Control, Test C.
For assay [3] the test system is unchanged. Put plainly: whole plant or invertebrate. As to conditions: for pest or weed control at 40 ppm: Phytophthora infestans, 144 h, read-out: Percent Disease Control, Test B.
Where [4] appears, read: compounds without asterisk (application rate not given), 100 = 100% disease control, 0 = no control relative to the controls.

Turning to `Cc1cc(C(F)(F)F)nn1CC(=O)N1CCC(c2nc(C3=NOC4(CCCC4)C3)cs2)CC1` [Compound 67], in assay [1] (* tested at 40 ppm), the “Percent Disease Control, Test A” value worked out at 100%. Moreover, the “Percent Disease Control, Test C” value in assay [2] (* tested at 40 ppm) is listed as 99%. The “Percent Disease Control, Test B” value in assay [3] (* tested at 40 ppm) was 100%.
In the case of `Cc1cc(C(F)(F)F)nn1CC(=O)N1CCC(c2nc(-c3nc(-c4ccccc4)no3)cs2)CC1` [Compound 68], in assay [1] (setting [4]), the “Percent Disease Control, Test A” value is 96%. For the same compound, the “Percent Disease Control, Test C” value in assay [2] (setting [4]) came out at 88%. In assay [3] (setting [4]), the “Percent Disease Control, Test B” value worked out at 95%.
With `Cc1cc(C(F)(F)F)nn1CC(=O)N1CCC(c2nc(-c3ccc(Oc4ccccc4)cc3)cs2)CC1` [Compound 72], in assay [1] (setting [4]), the “Percent Disease Control, Test A” value worked out at 72%. The “Percent Disease Control, Test C” value in assay [2] (setting [4]) is 52%. Besides, the “Percent Disease Control, Test B” value in assay [3] (setting [4]) worked out at 100%.
The like results for `Cc1cc(C(F)(F)F)nn1CC(=O)N1CCC(c2nc(-c3cccc4ccccc34)cs2)CC1` [Compound 73] were, in that order, 27%, 0% and 40%.
Take `Cc1cc(C(F)(F)F)nn1CC(=O)N1CCC(c2nc(-c3cccc(-c4ccccc4)c3)cs2)CC1` [Compound 74]: the “Percent Disease Control, Test A” value in assay [1] (setting [4]) is given as 50%. Besides, the “Percent Disease Control, Test C” value in assay [2] (setting [4]) amounted to 0%. Moreover, the “Percent Disease Control, Test B” value in assay [3] (setting [4]) turned out to be 40%.
On the same counts, the results for `Cc1cc(C(F)(F)F)nn1CC(=O)N1CCC(c2nc(-c3cccc(Oc4ccccc4)c3)cs2)CC1` [Compound 75] are 72%, 0% and 24%.
On the same counts, the results for `Cc1cc(C(F)(F)F)nn1CC(=O)N1CCC(c2nc(-c3ccn(-c4ccccc4)n3)cs2)CC1` [Compound 76] are 72%, 67% and 92%.
As to `Cc1ccc(-n2cc(-c3csc(C4CCN(C(=O)Cn5nc(C(F)(F)F)cc5C)CC4)n3)nn2)cc1` [Compound 77], in assay [1] (setting [4]), the “Percent Disease Control, Test A” value worked out at 87%. For the same compound, the “Percent Disease Control, Test C” value in assay [2] (setting [4]) is 99%. Moreover, the “Percent Disease Control, Test B” value in assay [3] (setting [4]) came to 100%.
The like results for `Cc1cc(C(F)(F)F)nn1CC(=O)N1CCC(c2nc(-c3ccnn3-c3ccccc3)cs2)CC1` [Compound 78] were, in that order, 0%, 0% and 0%.
In the case of `Cc1cc(C(F)(F)F)nn1CC(=O)N1CCC(c2nc(C3=NO[C@@H](c4ccccc4F)C3)cs2)CC1` [Compound 79], the “Percent Disease Control, Test A” value in assay [1] (setting [4]) was found to be 100%. For the same compound, the “Percent Disease Control, Test C” value in assay [2] (setting [4]) worked out at 66%. The “Percent Disease Control, Test B” value in assay [3] (setting [4]) stood at 100%.
In the case of `COC1ON=C(c2csc(C3CCN(C(=O)Cn4nc(C(F)(F)F)cc4C)CC3)n2)CC1c1ccccc1` (stereo not drawn) [Compound 81], the “Percent Disease Control, Test A” value in assay [1] (setting [4]) amounted to 93%. For the same compound, in assay [2] (setting [4]), the “Percent Disease Control, Test C” value is 77%. Besides, the “Percent Disease Control, Test B” value in assay [3] (setting [4]) stood at 92%.
For the compound `Cc1cc(C(F)(F)F)nn1CC(=O)N1CCC(c2nc(-c3nn(-c4ccccc4)c(=O)[nH]3)cs2)CC1` [Compound 82], the “Percent Disease Control, Test A” value in assay [1] (setting [4]) was determined as 0%. Moreover, the “Percent Disease Control, Test C” value in assay [2] (setting [4]) came to 26%. The “Percent Disease Control, Test B” value in assay [3] (setting [4]) was found to be 88%.
`Cc1cc(C(F)(F)F)nn1CC(=O)N1CCC(c2nc(-c3ccc(-c4ccccc4)o3)cs2)CC1` [Compound 83]: the “Percent Disease Control, Test A” value in assay [1] (setting [4]) is reported as 46%. Further, in assay [2] (setting [4]), the “Percent Disease Control, Test C” value was 0%. For the same compound, in assay [3] (setting [4]), the “Percent Disease Control, Test B” value turned out to be 92%.
For `Cc1cc(C(F)(F)F)nn1CC(=O)N1CCC(c2nc(-c3csc(-c4ccccc4)n3)cs2)CC1` [Compound 84], in assay [1] (setting [4]), the “Percent Disease Control, Test A” value came out at 67%. For the same compound, the “Percent Disease Control, Test C” value in assay [2] (setting [4]) is 0%. For the same compound, the “Percent Disease Control, Test B” value in assay [3] (setting [4]) was determined as 33%.
The like results for `Cc1cc(C(F)(F)F)nn1CC(=O)N1CCC(c2nc(-c3ccc(-c4ccccc4)s3)cs2)CC1` [Compound 85] were, in that order, 85%, 0% and 70%.
The like results for `Cc1cc(C(F)(F)F)nn1CC(=O)N1CCC(c2nc(-c3cc(-c4ccc(Cl)cc4Cl)no3)cs2)CC1` [Compound 86] were, in that order, 83%, 14% and 79%.
The like results for `Cc1cc(C(F)(F)F)nn1CC(=O)N1CCC(c2nc(-c3cc(-c4ccc(Cl)c(Cl)c4)no3)cs2)CC1` [Compound 87] were, in that order, 76%, 0% and 44%.
For the compound `Cc1cc(C(F)(F)F)nn1CC(=O)N1CCC(c2nc(C3=NOC(c4ccc5ccccc5c4)C3)cs2)CC1` (stereo not drawn) [Compound 88], the “Percent Disease Control, Test A” value in assay [1] (* tested at 40 ppm) was 99%. The “Percent Disease Control, Test C” value in assay [2] (* tested at 40 ppm) is given as 99%. The “Percent Disease Control, Test B” value in assay [3] (* tested at 40 ppm) stood at 100%.
For the compound `Cc1cc(C(F)(F)F)nn1CC(=O)N1CCC(c2nc(C3=NOC(c4ccc(C(C)(C)C)cc4)C3)cs2)CC1` (stereo not drawn) [Compound 91], the “Percent Disease Control, Test A” value in assay [1] (* tested at 40 ppm) turned out to be 99%. Further, the “Percent Disease Control, Test C” value in assay [2] (* tested at 40 ppm) is recorded as 91%. Further, in assay [3] (* tested at 40 ppm), the “Percent Disease Control, Test B” value is given as 100%.
The like results for `Cc1cc(C(F)(F)F)nn1CC(=O)N1CCC(c2nc(C3=NCC(c4ccccc4)N3)cs2)CC1` (stereo not drawn) [Compound 92] were, in that order, 13%, 9% and 33%.
On the same counts, the results for `Cc1cc(C(F)(F)F)nn1CC(=O)N1CCC(c2nc(C3=NOC(c4ccc(F)cc4)C3)cs2)CC1` (stereo not drawn) [Compound 96] are 100%, 99% and 100%.
On the same counts, the results for `Cc1cc(C(F)(F)F)nn1CC(=O)N1CCC(c2nc(C3=NOC(c4ccc(C(F)(F)F)cc4)C3)cs2)CC1` (stereo not drawn) [Compound 97] are 99%, 95% and 100%.
`Cc1cc(C(F)(F)F)nn1CC(=O)N1CCC(c2nc(C3=NOC(c4ccccn4)C3)cs2)CC1` (stereo not drawn) [Compound 98, 1-[4-[4-(4,5-dihydro-5-(2-pyridinyl)-3-isoxazolyl)-2-thiazolyl]-1-piperidinyl]-2-[5-methyl-3-(trifluoromethyl)-1H-pyrazol-1-yl]ethanone]: the figures for the pest or weed control at 40 ppm in assay [1] (* tested at 40 ppm), in assay [2] and in assay [3] were 77%, 99% and 100%, respectively.
Regarding `Cc1cc(C(F)(F)F)nn1CC(=O)N1CCC(c2nc(C3=NC4CCCCC4N3)cs2)CC1` (stereo not drawn) [Compound 99], the “Percent Disease Control, Test A” value in assay [1] (setting [4]) is 31%. In addition, in assay [2] (setting [4]), the “Percent Disease Control, Test C” value is 0%. For the same compound, the “Percent Disease Control, Test B” value in assay [3] (setting [4]) is recorded as 33%.
For `Cc1cc(C(F)(F)F)nn1CC(=O)N1CCC(c2nc(C3=NOC(c4ccccc4)(C(C)C)C3)cs2)CC1` (stereo not drawn) [Compound 100], the “Percent Disease Control, Test A” value in assay [1] (* tested at 40 ppm) is given as 100%. Further, in assay [2] (* tested at 40 ppm), the “Percent Disease Control, Test C” value came out at 99%. Besides, the “Percent Disease Control, Test B” value in assay [3] (* tested at 40 ppm) was 100%.
`CCCC1(c2ccccc2)CC(c2csc(C3CCN(C(=O)Cn4nc(C(F)(F)F)cc4C)CC3)n2)=NO1` (stereo not drawn) [Compound 101]: in assay [1] (* tested at 40 ppm), the “Percent Disease Control, Test A” value worked out at 100%. In assay [2] (* tested at 40 ppm), the “Percent Disease Control, Test C” value worked out at 99%. Also, the “Percent Disease Control, Test B” value in assay [3] (* tested at 40 ppm) turned out to be 100%.
Regarding `Cc1cc(C(F)(F)F)nn1CC(=O)N1CCC(c2nc(C3=NOC4(CCSc5ccccc54)C3)cs2)CC1` (stereo not drawn) [Compound 102, 1-[4-[4-(2,3-dihydrospiro[4H-1-benzothiopyran-4,5′(4′H)-isoxazol]-3′-yl)-2-thiazolyl]-1-piperidinyl]-2-[5-methyl-3-(trifluoromethyl)-1H-pyrazol-1-yl]ethanone], the pest or weed control at 40 ppm in assay [1] (* tested at 40 ppm) stood at 100%; in assay [2], 99%; in assay [3], 100%.
On to `Cc1cc(C(F)(F)F)nn1CC(=O)N1CCC(c2nc(C3=NOC(c4ccccc4)(C4CC4)C3)cs2)CC1` (stereo not drawn) [Compound 103], for which the “Percent Disease Control, Test A” value in assay [1] (* tested at 40 ppm) turned out to be 100%. The “Percent Disease Control, Test C” value in assay [2] (* tested at 40 ppm) was found to be 99%. Moreover, in assay [3] (* tested at 40 ppm), the “Percent Disease Control, Test B” value turned out to be 100%.
`Cc1cc(C(F)(F)F)nn1CC(=O)N1CCC(c2nc(C3=NOC4(CCC(c5ccccc5)CC4)C3)cs2)CC1` (stereo not drawn) [Compound 104]: the “Percent Disease Control, Test A” value in assay [1] (setting [4]) amounted to 100%. In addition, the “Percent Disease Control, Test C” value in assay [2] (setting [4]) amounted to 99%. The “Percent Disease Control, Test B” value in assay [3] (setting [4]) came out at 100%.
`CCC1(c2ccccc2)CC(c2csc(C3CCN(C(=O)Cn4nc(C(F)(F)F)cc4C)CC3)n2)=NO1` (stereo not drawn) [Compound 105]: in assay [1] (* tested at 40 ppm), the “Percent Disease Control, Test A” value turned out to be 100%. Also, in assay [2] (* tested at 40 ppm), the “Percent Disease Control, Test C” value is on record as 99%. For the same compound, the “Percent Disease Control, Test B” value in assay [3] (* tested at 40 ppm) is 100%.
For the compound `Cc1cc(C(F)(F)F)nn1CC(=O)N1CCC(c2nc(C3=NOC(c4ccc(-c5ccccc5)cc4)C3)cs2)CC1` (stereo not drawn) [Compound 106], in assay [1] (* tested at 40 ppm), the “Percent Disease Control, Test A” value amounted to 80%. The “Percent Disease Control, Test C” value in assay [2] (* tested at 40 ppm) is 24%. For the same compound, the “Percent Disease Control, Test B” value in assay [3] (* tested at 40 ppm) is 85%.
Regarding `O=C(Cn1nc(C(F)(F)F)cc1Cl)N1CCC(c2nc(C3=NOC(c4ccccc4)C3)cs2)CC1` (stereo not drawn) [Compound 107, 2-[5-chloro-3-(trifluoromethyl)-1H-pyrazol-1-yl]-1-[4-[4-(4,5-dihydro-5-phenyl-3-isoxazolyl)-2-thiazolyl]-1-piperidinyl]ethanone], the pest or weed control at 40 ppm in assay [1] (* tested at 40 ppm) amounted to 100%; in assay [2], 99%; in assay [3], 100%.
`Cc1cc(C(F)(F)F)nn1CC(=O)N1CCC(c2nc(C3=NC(c4ccccc4)C(c4ccccc4)N3)cs2)CC1` (stereo not drawn) [Compound 108]: in assay [1] (setting [4]), the “Percent Disease Control, Test A” value is given as 0%. The “Percent Disease Control, Test C” value in assay [2] (setting [4]) was 0%. Moreover, the “Percent Disease Control, Test B” value in assay [3] (setting [4]) came to 58%.
